Consider 4 molecules from patent publication US7482008B1, “Human T cell reactive feline protein (TRFP) isolated from house dust and uses therefor” (Merck Patent GmbH, priority 1989, dated 2009).

Assay [1] has as its system human IgE (cat allergic patient plasma). The assay can be described thus: Direct binding ELISA of human IgE to coated antigen. As to conditions: direct binding ELISA or similar protocol. The protocol: The basic format of these ELISA assays was a direct binding assay wherein the antigen was coated onto the wells of a 96 well microtitre dish and then antibodies in solution are added and assayed for the binding capacity. The protocol for these assays was as follows:
The peptides were conjugated to HSA (human serum albumin) by two different methods based on their chemical structure. […] Both conjugates were filter purified and dialyzed against PBS. In the ELISA assay, the unbound coating antigens were removed and the wells were blocked with 0.5% gelatin in PBS, 200 μl/well for 2 hours at room temperature. The antibody solution was a pool of plasma samples from 20 patients that were skin test positive for commercial cat extract which was serially diluted with PBS-Tween 20 (PBS with 0.05% nonionic detergent Tween-Sigma, St. Louis Mo.) and 100 μl/well was added and incubated overnight at 4° C. (plasma dilutions are tested in duplicate). […] The second antibody (biotinylated goat anti-Human IgE, 1:1000 Kirkegaard & Perry Laboratories Inc. Gaithersburg, Md.), was added at 100 μl/well for one hour at room temperature. This solution was removed and streptavidin-HRPO, 1:1000, (Southern Biotechnology Associates, Inc., Birmingham, Ala.) was then added at 100 μl/well for one hour at room temperature (all wells were washed three times with PBS-Tween between each incubation step). TMB Membrane Peroxidase Substrate system (Kirkegaard & Perry Laboratories) was freshly mixed, and added at 100 μl/well. The color was allowed to develop for 2-5 minutes. The reaction was stopped by the addition of […] of 1 M phosphoric acid. Plates are read on a Microplate EL 310 Autoreader (Biotek Instruments, Winooski, Vt.) with a 450 nm filter. The absorbance levels of duplicate wells were averaged.

The subject of assay [2] is T cells from cat allergic patients. The assay can be described thus: T cell proliferation of TRFP-primed T cells from cat allergic patients (tritiated thymidine), Example 5 Part A. Type of assay: cell-based, human. The settings on record: Table 3, chain #2 TRFP peptides. The procedure: Peripheral blood mononuclear cells (PBMC) were purified from 60 ml of heparinized blood from cat allergic patients. PBMC were subsequently treated as described below, although in individual cases, the length of time of cultivation with IL-2 and/or IL-4 and the specific peptides used for stimulation varied.
10 ml of PBMC from patient 131 at 10^6 /ml were cultured at 37° C. for 7 days in the presence of 5 μg purified TRFP/ml RPMI-1640 supplemented with 5% pooled human AB serum. Viable cells were purified by Ficoll-Hypaque centrifugation and cultured for three weeks at 5 units recombinant human IL-2/ml and 5 units recombinant human IL-4/ml. The resting T cells were then restimulated (secondary) with 5 μg TRFP at 2×10^5/ml in the presence of irradiated (3500 Rads) autologous PBMC at a concentration of 5×10^5/ml for three days, purified by Ficoll-Hypaque centrifugation and grown in 5 units IL-2 and 5 units IL-4/ml for two weeks. For assay, 2×10^4 resting secondary T cells were restimulated (tertiary) in the presence of 5×10^4 irradiated (3500 Rads) autologous PBMC or 2×10^4 transformed B cells (20,000 Rads) with various concentrations of allergens or their fragments in a volume of 200 microliters in a 96-well round bottom assay plates for 3 days. Each well then received 1 μCurie tritiated (methyl) thymidine for 16 hours. The counts incorporated were collected onto glass fiber filters and processed for liquid scintillation counting.
Antigens used: T cell reactive feline protein (TRFP), Hollister-Stier cat epithelium skin test reagent (CST), IPC ragweed pollen extract (pollen), and synthetic peptides derived from TRFP protein sequence (See FIGS. 6 and 7). Positive T cell proliferation is for these experiments was considered to be greater than 2.5 times the media control (T cells and antigen presenting cells alone).
Alternatively, PBMC were treated as follows: The primary stimulated cells were cultured in IL-2/IL-4 for two weeks. The resting T cells derived from this culture were tested in a secondary assay with some, but not all, of the above allergens. […] This type of epitope analysis has allowed the definition of T cell epitopes present in TRFP.

The test system of assay [3] is PBMC from cat-allergic patients. As to the kind of experiment: IL-2, IFN-gamma and IL-4 measurements by PCR in primary 36 hour PBMC culture. The settings on record: Patient 409 primary 36 hour culture. The format is cell-based, human. The protocol:
Peripheral blood mononuclear cells (PBMC) were purified from cat-allergic patients as described in Example 5. Five×10^6 PBMC were cultured at 2×10^6/ml for 36 hours in the presence of medium only, 20 μg purified TRFP/ml or 50 μg peptide/ml. The cells were then washed two times with phosphate buffered saline (PBS, pH 7.2) and lysed with 2 ml […] guanidinium isothiocyanate, 0.5% Sarkosyl, 5 mM sodium citrate, 0.1 M 2-mercaptoethanol, pH 7.0. The lysate was then forced through a 26 gauge needle to shear genomic DNA, and was layered onto a 2 ml cushion of 5.7 M CsCl, 0.01 M EDTA, pH 7.5 in diethylpyrocarbonate (DEPC)-treated water. The lysate was centrifuged at 35,000 RPM in a Beckman SW41 rotor for 18 hours at 20° C. The RNA pellet was resuspended in 0.4 ml TE (10 mM Tris, 1 mM EDTA), pH 7.5, 0.1% SDS, and then extracted three times with 0.5 ml phenol/0.2 ml chloroform. The RNA was then precipitated on dry ice with 2.5 volumes ice-cold ethanol, 1/10 volume 3 M sodium acetate, pH 5.2 in DEPC-treated water, rinsed once with 70% ethanol in DEPC-treated water, and dried. The RNA pellet was resuspended in 2 μl TE., pH 7.5 in DEPC-treated water.
Total cellular RNA was converted to cDNA using the Superscript kit (BRL, Bethesda, Md.). Two μl of RNA were added to one μl oligo (dT)12-18 (500 μg/ml) and 9 μl water. The sample was heated to 70° C. for 10 minutes and ice quenched. Four μl 5× buffer were added to the sample along with 2 μl 0.1 M DTT and 1 μl dNTP mix (10 mM each, dATP, dCTP, dGTP, dTTP). One μl reverse transcriptase (200U) was added and the reaction was carried out for one hour at 42° C. The reaction was terminated by incubation of the sample at 90° C. for five minutes and stored at −80° C.
Ten-fold serial dilutions of T cell cDNA in 10 mM TRIS, pH 7.5 were amplified using the standard kit and protocol recommended by Perkin Elmer-Cetus (Redwood City, Calif.). Each sample received 26.65 μl water, 5 μl ×PCR buffer, 8 μl of dNTP mix (1.25 mM each of dATP, dCTP, dGTP and dTTP), 0.1 μl alpha 32P-dCTP (3000 Ci/mmol), 0.25 μl AmpliTaq, 5 μl cDNA and 5 μl cytokine-specific 5′ and 3′ primers (20 micromolar). The primers used for most cytokines and the beta-actin control were purchased from Clontech (Redwood City, Calif.). The human IL-4 primers were purchased from Research Genetics (Huntsville, Ala.) and had the following sequences: 5′ hIL-4 primer (SEQ. ID. NO: 58):
The PCR products were extracted once with 25 μl chloroform and 25 μl of each sample were then electrophoresed on an 8% polyacrylamide gel at 250 V. The gel was dried and exposed to pre-flashed x-ray film. Several exposures of each gel were then scanned using a Shimadzu flying spot laser densitometer. Values on the linear portion of the titrations were then compared to the medium control values to obtain a stimulation index for each sample. Primers for beta-actin were included as a control for general cDNA levels in each sample. Where the medium control values are not detectable, the lowest measurable response was set at 1.00. In other experiments, levels of cytokine cDNA can be compared directly with previously amplified cytokine specific cDNAs as standards. Thus, absolute levels of particular cytokine cDNAs can be compared from one sample to another and from one experiment to another. In this experiment, IL-2, IL-4 and IFN-gamma levels were measured. As shown, in this particular cat-allergic patient, peptides such as Fel 18 generate more IL-4 than certain other TRFP-derived peptides (Fel 14 and Fel 17). This analysis will be expanded to studies of other cytokines involved in the generation of allergic responses, such as IL-5, IL-8, IL-9, TGF-beta. Samples of cDNA from each treatment can also be saved for later analysis once additional cytokines are identified and sequenced. Peptides generating a spectrum of cytokines favorable for the generation of allergic responses can be avoided for therapeutic use in the treatment of cat allergy. […]

The subject of assay [4] is T cells from cat-allergic patients. The assay can be described thus: Secondary proliferation assay of T cells primed with TRFP, peptide YXZ or peptide YZX. The format is cell-based, human. The protocol:
The human cat allergic T cell response to peptides produced as above was examined. […] Peptide YZX was cleaved with thrombin as described in Example 25. Viable cells were then purified by Ficoll-Hypaque centrifugation and cultured for 2 additional weeks in RPMI-1640/5% AB serum containing 5 units recombinant human IL-2/ml and 5 units recombinant human IL-4/ml. The resting T cells were then tested in a secondary proliferation assay using a 96 well microtiter plate to assess T cell responses to various TRFP proteins or peptides (TRFP antigens). For assay, 2×10^4 resting T cells were cultured for 3 days at 37° C. in the presence of 2×10^4 autologous Epstein-Barr virus transformed B cells (25,000 Rads) as antigen presenting cells with various concentrations of antigen in 200 μl per well. Each well then received 1 μCi tritiated thymidine for 16 hours. The counts incorporated were collected onto glass fiber filters and processed for liquid scintillation counting. The stimulation indices for responses to each antigen were then calculated as the maximum CPM in response to antigen divided by the medium control CPM. A stimulation index of 2.5 was considered to be a positive T cell response. A summary of the results of 3 such experiments (patients 522, 519, and 386 is shown in FIG. 35a, FIG. 35b and FIG. 35c). As compared to the experiments shown in FIGS. 35a and 35b in the experiment shown in […], Fel-1.4 (chain 1, amino acid residues 6-17) was substituted for Fel-1.2 (chain 1, amino acid residues 1-17) and Fel-33.3 (chain 2, amino acid residues 26-40) was substituted for Fel-18 (chain 2, amino acid residues 23-48) in order to more closely resemble the constituent amino acids of peptides X and Z. In addition, in this experiment one peptide derived from the Y-Z junction of peptide YZX (amino acid residues 50-55 from chain 1 of TRFP and amino acid residues 14-19 from chain 2 of TRFP) and one peptide derived from the Z-X junction of peptide YZX (amino acid residues 34-39 of chain 2 of TRFP and amino acid residues 7-12 of chain 1 of TRFP) were synthesized and tested. These junction peptides were produced in order to determine whether these areas of peptide YZX produce a non-native epitope when formed in the peptide.

The test system of the next assay is human IgE. As to the kind of experiment: SDS/PAGE Western immunoblot of human IgE binding, plasma from patient #417. The settings on record: patient #417 plasma. The procedure:
Western immunoblot analysis of the peptides produced in above was performed. The concentration of all protein samples (e.g., TRFP, recombinant chain 1 of TRFP, recombinant chain 2 of TRFP, peptide XYZ, peptide XZY, peptide YXZ, peptide YZX, peptide ZXY and peptide ZYX) for gel electrophoresis was determined by the BCA method (Pierce Co.). All protein samples were loaded on the gel at 5 μg/lane except TRFP at 10 μg/lane. Protein separation was carried out on a 15% acrylamide gel, and transfer was performed by electroblotting at 1.5 Amps for 1.5 hours onto nitrocellulose paper (Schleicher and Schuell, 0.1 microns) in a Hoeffer apparatus according to the protocol of Towbin, H., T. Stachlin, and J. Gordon, PNAS 76:4350 (1979). Proteins were rinsed in blot solution (25 mM Tris-HCl 7.5, 0.171 M NaCl and 0.5 ml/liter Tween 20). The blot was then blocked for one hour in blocking solution (1% milk in blot solution). Plasma from patient #417, used as a primary antibody source, was diluted in blocking solution to 10% and preabsorbed for 1.5 hours with unused nitrocellulose (2 cm×15 cm). The prepared human plasma was then incubated overnight on an orbital shaker with the protein blot section of interest. Following the first antibody incubation the blot section was washed three times, each wash involved a fifteen minute incubation in blot solution. The second antibody, specific for human IgE (biotinylated goat anti-human IgE, KPL Inc.), was diluted 1:2500 in blot solution and the incubation proceeded for two hours. Excess second antibody was subsequently removed by three 15 minute incubations with blot solution. ^125I Iodinated streptavidin (Amersham) was diluted 1:2500 in blot solution and incubated with blots for 1 hour, at 2 μCi in a 50 ml incubation volume. Blot sections were then washed with blot solution until the detectable radioactivity in the waste solution decreased to background levels. The blot section was then wrapped in saran wrap and exposed to film overnight with a cronex intensifying screen at −80° C.
For orientation: In western blotting, separated proteins are transferred to a membrane and probed.

As to “Fel 8-1: TRFP chain 1 amino acids 5-33 (AVKRDVDLFLTGTPDEYVEQVAQYKALPV; UniProt P30438 27-55, looked up, fragment)”, the “specific IgE binding” value in assay [1] was “None of these peptides showed IgE binding”.
Same read-out and setting: the entry for “Fel 31-1: TRFP chain 2 amino acids 14-40 (VTQALGVKMAETCPIFYDVFFAVANGN)” is “None of these peptides showed IgE binding”.
Take “LLLDLSLTKVNATEPERTAMKKIQDC [Fel 18, TRFP chain 2 amino acids 23-48]”: in assay [2], the PI is listed as 466 and the SI amounted to 6.3. In addition, in assay [3], the “RATIO IFN/IL-4” value is 0.5 and the “RATIO IL-2/IL-4” value is reported as 0.4. Besides, in assay [3] (PCR, vs medium control), the “STIMULATION INDEX IFN-γ” value is given as 5.6, the “STIMULATION INDEX IL-2” value is 4.6 and the “STIMULATION INDEX IL-4” value is on record as 12.0. Further, the T cell response entry in assay [4] (patient 522, T cells primed with YXZ) is on record as “respond at a similar level or better”.

B1: peptide YXZ: recombinant peptide: peptide Y, peptide X and peptide Z linked in this order (protein)
chain: MGHHHHHHEFKALPVVLENARILKNCVDAKMTEEDKEKRDVDLFLTGTPDEYVEQVAQYKALPVFFAVANGNELLLDLSLTKVNATEPER
Consider B1, for which, in the assay on human IgE, the “IgE binding, Western immunoblot” value is listed as “negative for IgE binding”. The T cell response result in assay [4] (patient 519, cells primed with peptide YXZ) was “positive responses”; in assay [4] (patient 519, native TRFP-primed T cells), “respond”; in assay [4] (patient 522, T cells primed with native TRFP, SI 2.5 positive), “positively respond”.
